Experimental data from US12297203B2, “Pyrrolopyrimidine ITK inhibitors” (ACLARIS THERAPEUTICS, INC., priority 2018, dated 2025).

Tests used:
ITK = ITK (Homo sapiens (Human), UniProt Q08881); assay: ITK inhibitor binding potency (LanthaScreen competitive binding assay); conditions: read-out: ITK Inh. IC50
Excerpt: The ability of candidate compounds to interact with ITK is quantitated by a competitive binding assay using the LanthaScreen technology developed by Life Technologies. This assay is based on the binding of a proprietary, Alexa Fluor® 647-labeled, ATP-competitive kinase inhibitor (kinase tracer-236) to the ITK expression construct in the presence of a Europium-conjugated antibody, resulting in a FRET (fluorescence resonance energy transfer) signal. Displacement of the kinase tracer by compound results in a lower emission ratio upon excitation of the Europium chelate. Candidate compounds are designed as potential irreversible inhibitors of ITK, capable of ligating to an active site cysteine residue resulting in time dependent covalent binding. The time dependent nature of irreversible inhibition is investigated by performing the binding assay with and without a pre-incubation of compound and ITK. […] The inhibitory potency of candidate compounds is measured in 20 mM HEPES pH 7.5, 10 mM MgCl2, 0.01% BSA, 0.0005% Tween-20, and 2% DMSO in the presence of 10 nM ITK, 2 nM Eu-anti-GST antibody, and 50 nM kinase tracer-236 using a 384-well plate format. Background signal is defined in the absence of ITK and uninhibited signal is defined in the presence of vehicle (2% DMSO) alone. Compounds were evaluated in an 11 point dose-response ranging from 20 uM to 0.34 nM. The binding assays are performed under two preincubation conditions to evaluate time dependence of inhibition. For the pre-incubation assay, ITK and Eu-anti-GST antibody are pre-incubated with compound or vehicle for two hours prior to the addition of kinase tracer. The non-preincubated assay is run under conditions where ITK and Eu-anti-GST antibody are added to a mixture of compound and kinase tracer. IC50 values of compounds are determined using a 4 parameter logistical fit of emission ratio as a function of the concentration of compound.

JAK3 = JAK3 (Homo sapiens (Human), UniProt P52333); assay: JAK3 enzyme activity assay (Caliper mobility shift); format: biochemical; conditions: ATP at Km level; read-out: JAK3 Inh. IC50
JAK3, sequence (P52333 781-1124): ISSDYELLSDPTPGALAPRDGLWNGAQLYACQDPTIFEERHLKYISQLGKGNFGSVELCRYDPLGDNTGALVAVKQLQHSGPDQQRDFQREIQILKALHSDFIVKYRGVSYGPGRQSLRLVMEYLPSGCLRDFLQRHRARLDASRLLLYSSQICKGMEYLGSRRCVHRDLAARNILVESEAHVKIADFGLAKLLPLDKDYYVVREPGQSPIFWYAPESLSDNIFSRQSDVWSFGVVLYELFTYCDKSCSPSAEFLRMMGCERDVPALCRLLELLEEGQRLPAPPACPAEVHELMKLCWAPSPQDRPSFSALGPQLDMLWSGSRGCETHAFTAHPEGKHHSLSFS
Excerpt: The ability of candidate compounds to interact with JAK3 is quantitated by a mobility shift assay using an LC3000 instrument developed by Caliper Life Sciences. This assay is based on mobility shift electrophoresis, in which fluorescently labelled product and fluorescently labelled substrate peaks are separated and detected independently. JAK3 product/substrate separation is obtained using the following instrument settings: Pressure=−1.4 psi, Downstream voltage=−2550V and Upstream voltage=−800V. The inhibitory potency of candidate compounds of JAK3 is measured in 20 mM HEPES pH 7.5, 10 mM MgCl2, 0.01% BSA, 0.0005% Tween-20, and 2% DMSO in the presence of 2.5 nM JAK3 (Life Technologies Catalog #PV3855), […] (Anaspec Catalog #AS-64106) and […] (Km level) using a 384-well plate format. Background signal is defined in the absence of enzyme and uninhibited signal is defined in the presence of vehicle (2% DMSO) alone. Compounds were evaluated in an 11 point dose-response ranging from […] to 0.34 nM. IC50 values of compounds are determined using a 4 parameter logistical fit of emission ratio as a function of the concentration of compound.

[1] = tested on: ITK phosphorylation of its substrate, PLCγ1, at Y783; assay: ITK target modulation assay (PLCγ1 Y783 phosphorylation, anti-CD3 stimulated Jurkat T cells); format: cell-based; conditions: Homo sapiens, Jurkat, anti-CD3 Dynabeads stimulation, read-out: PLC-γ Inh. IC50
Method: Target modulation was based upon the ability of a compound to inhibit ITK phosphorylation of its substrate, PLCγ1, at Y783. Human Jurkat T cells (ATCC TIB-152) were plated in V-bottom 96 well plates at 400,000 cells/well in 80 μL medium (RPMI1640 with 10% heat inactivated serum and 55 μM 2-mercaptoethanol and supplemented with glutamine/penicillin/streptomycin). Compounds were added as 10 μL of 10× working stock solutions in medium with 1% DMSO (or medium with 1% DMSO for controls) and placed in a 37° C. incubator with gentle shaking for 1 hour. Stimulation was carried out using anti-CD3 Dynabeads (Invitrogen catalog #1151D) to activate the T cell receptor and mimic antigen presenting cells. Beads were washed and resuspended in medium at 1.84×10^8 beads/ml. Beads were added rapidly to all compound containing and stimulation only wells at 10 μL/well (bead:cell=2:1) with gentle mixing of the bead source between each addition. Wells designated ‘unstimulated’ received 10 μL of media only. The plate was immediately sealed with a plate seal and cells pelleted at 400× g for 4 minutes. Media was removed using a multichannel aspirator, 25 μL of cold hypotonic lysis buffer (VWR M334-100 ml) plus 1×HALT Protease Inhibitor Cocktail (ThermoFisher #78437), 1× Phosphatase Inhibitor Cocktail 2 (Sigma Aldrich #P5726), 1× Phosphatase Inhibitor Cocktail 3 (Sigma Aldrich #P0044) and 2 mM PMSF was added per well. Cells were incubated on ice for 30 minutes to swell the cells then lysed by pipetting 20 times using a multichannel pipet. The plates were then resealed and centrifuged for 5 minutes at 400× g to pellet the cellular debris. Two μL of the soluble component of each sample was spotted onto nitrocellulose and allowed to dry for 30 minutes. Nitrocellulose was wet in 1× Tris Buffer Saline (20 mM Tris pH7.5, 150 mM NaCl) then blocked in LiCOR Odyssey Blocking Buffer (TBS) (LiCOR #927-50000) for 1 hour at room temperature with rocking. Following blocking, nitrocellulose was incubated in LiCOR Odyssey Blocking Buffer (TBS) plus 0.2% Tween20 plus anti-phospho-PLCγ1 (Y783) antibody (CST #2821S) at 1:1000 and anti-PLCγ1 (Abcam #41433) at 1:5000 with gentle rocking overnight at 4° C. Nitrocellulose was then washed four times for 5 minutes each with TBS plus 0.1% Tween20 (TBST) then incubated in LiCOR Odyssey Blocking Buffer (TBS) plus 0.2% Tween20 plus secondary antibodies IRDye 800CW (LiCOR 926-32211) and IRDye 680RD (LiCOR 926-68070) both at 1:15,000 with gentle rocking at room temperature in the dark for 1 hour. Nitrocellulose was then washed four times for 5 minutes each with TBST at room temperature in the dark. A final rinse with TBS was done prior to imaging and quantifying using the LiCOR Odyssey Imager and software respectively.

[2] = tested on: JAK1/3 phosphorylation of its substrate, STAT5, at Y694; assay: JAK1/3 target modulation assay (IL-2 stimulated STAT5 Y694 phosphorylation in PBMC); format: cell-based; conditions: Homo sapiens, PBMC, Primary human peripheral blood mononuclear cells, IL-2 25 ng/mL; read-out: IL2-STAT5 Inh. IC50
Method: Target modulation was based upon the ability of a compound to inhibit JAK1/3 phosphorylation of its substrate, STAT5, at Y694. Primary human peripheral blood mononuclear cells were plated in V-bottom 96 well plates at 200,000 cells/well in 120 μL medium (RPMI-1640 with 10% fetal bovine serum, 10 mM HEPES buffer, 12.2 mM 2-mercaptoethanol, and supplemented with glutamine/penicillin/streptomycin). Compounds were added as 15 μL of 10× working stock solutions in medium with 1% DMSO (or medium with 1% DMSO for controls) and placed in a 37° C. incubator with gentle shaking for 1 hour. Stimulation was carried out using recombinant human IL-2 (R&D Systems #202-IL-050) to activate JAK1/3. IL-2 stock solution was diluted in media to 250 ng/mL and was added rapidly to all compound containing and stimulation only wells at 15 μL/well (final concentration=25 ng/mL). Wells designated ‘unstimulated’ received 15 μL of media only. The plate was placed back in a 37° C. incubator with gentle shaking for 5 minutes. After stimulation, the plates were immediately sealed with a plate seal, and cells pelleted at 400× g for 5 minutes. Media was removed using a multichannel aspirator, and 75 μL of cold Tris lysis buffer (MSD #R60TX-3) plus 1× Protease Inhibitor Solution (MSD #R70AA-1), 1× Phosphatase Inhibitor I (MSD #R70AA-1), and 1× Phosphatase Inhibitor II (MSD #R70AA-1) was added per well. Cells were incubated at 4° C. with gentle shaking for at least 30 minutes to allow for complete lysis. The plates were removed from 4° C., and 25 μL of lysate from each well was added to the corresponding well on the MSD plate. Samples were analyzed by either an MSD multiplex kit for Phospho-STAT5a,b/Total-STAT5a,b (MSD #K15163D) or an MSD single-plex kit for Phospho-STAT5a,b (MSD #K150IGD). The protocols for the respective kits were followed, and the plates were read on the MSD SECTOR S 600.

ITK, sequence (Q08881 whole entry): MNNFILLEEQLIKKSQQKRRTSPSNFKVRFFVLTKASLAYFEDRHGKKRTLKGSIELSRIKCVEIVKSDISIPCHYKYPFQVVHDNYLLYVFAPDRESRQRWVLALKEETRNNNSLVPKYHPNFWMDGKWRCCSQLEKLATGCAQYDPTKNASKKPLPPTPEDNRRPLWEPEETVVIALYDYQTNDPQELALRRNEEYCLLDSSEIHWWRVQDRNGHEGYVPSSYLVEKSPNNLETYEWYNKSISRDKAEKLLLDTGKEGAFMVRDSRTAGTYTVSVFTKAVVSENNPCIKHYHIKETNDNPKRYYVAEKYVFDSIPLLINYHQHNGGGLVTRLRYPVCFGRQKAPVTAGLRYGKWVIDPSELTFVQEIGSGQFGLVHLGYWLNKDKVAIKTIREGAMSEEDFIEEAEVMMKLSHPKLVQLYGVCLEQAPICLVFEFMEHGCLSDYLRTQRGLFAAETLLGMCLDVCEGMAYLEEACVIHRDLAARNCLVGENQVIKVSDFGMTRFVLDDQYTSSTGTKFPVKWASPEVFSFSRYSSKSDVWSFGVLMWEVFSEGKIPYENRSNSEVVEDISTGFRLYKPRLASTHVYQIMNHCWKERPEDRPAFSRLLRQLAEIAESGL

Row | IC50 (ITK) [µM] | IC50 (JAK3) [µM] | IC50 [1] [µM] | IC50 [2] [µM] | SMILES
1 | ≤ 0.01 | ≤ 0.01 | 0.1 to 1 | 0.1 to 1 | C=CC(=O)N1C[C@H](Nc2ccnc3[nH]cc([C@@H]4CC4(F)F)c23)CC[C@@H]1C (single isomer, unassigned) [Example 74]
2 | > 0.1 | > 0.1 | > 1 | > 1 | C=CC(=O)N1C[C@H](Nc2ncnc3[nH]cc(CC4CC4)c23)CC[C@@H]1C(C)C (single isomer, unassigned) [Example 43]
3 | ≤ 0.01 | ≤ 0.01 | 0.1 to 1 | 0.1 to 1 | C=CC(=O)N1C[C@@H](Nc2ncnc3[nH]cc(CC4CC4)c23)CC[C@H]1C(C)C (single isomer, unassigned) [Example 42]
4 | ≤ 0.01 | ≤ 0.01 | 0.1 to 1 | 0.1 to 1 | C=CC(=O)N1C[C@H](Nc2ncnc3[nH]cc([C@@H]4[C@@H](C)C4(F)F)c23)CC[C@@H]1C (single isomer, unassigned) [Example 52]
5 | 0.01 to 0.1 | ≤ 0.01 | > 1 | > 1 | C=CC(=O)N1CCC[C@@H](Nc2ncnc3[nH]cc([C@]45CCC[C@H]4C5(F)F)c23)C1 (single isomer, unassigned) [Example 80]
6 | > 0.1 | ≤ 0.01 | > 1 | 0.1 to 1 | C=CC(=O)N1CCC(Nc2cnc3[nH]cc(C(=O)OCC)c3c2)CC1 [Example 96, ethyl 5-((1-acryloylpiperidin-4-yl)amino)-1H-pyrrolo[2,3-b]pyridine-3-carboxylate]
7 | ≤ 0.01 | ≤ 0.01 | ≤ 0.1 | ≤ 0.1 | C=CC(=O)N1C[C@H](Nc2ncnc3[nH]cc(C4CCCC4)c23)CC[C@@H]1C [Example 30, 1-((2S,5R)-5-((5-cyclopentyl-7H-pyrrolo[2,3-d]pyrimidin-4-yl)amino)-2-methylpiperidin-1-yl)prop-2-en-1-one]
8 | ≤ 0.01 | 0.01 to 0.1 | 0.1 to 1 | > 1 | C=CC(=O)N1CCC[C@@H](Nc2ncnc3[nH]cc(C(=O)C4CC4)c23)C1 [Example 5, (R)-1-(3-((5-(cyclopropanecarbonyl)-7H-pyrrolo[2,3-d]pyrimidin-4-yl)amino)piperidin-1-yl)prop-2-en-1-one]
9 | ≤ 0.01 | ≤ 0.01 | ≤ 0.1 | 0.1 to 1 | C=CC(=O)N1C[C@H](Nc2ncnc3[nH]cc(C4(C)CC4(F)F)c23)CC[C@@H]1C (stereo partly drawn) [Example 50, 1-((2S,5R)-5-((5-(2,2-difluoro-1-methylcyclopropyl)-7H-pyrrolo[2,3-d]pyrimidin-4-yl)amino)-2-methylpiperidin-1-yl)prop-2-en-1-one]
10 | > 0.1 | > 0.1 | > 1 | > 1 | C=CC(=O)N1CCC(Nc2ccnc3[nH]cc(C(=O)C4CC4)c23)CC1 [Example 10, 1-(4-((3-(cyclopropanecarbonyl)-1H-pyrrolo[2,3-b]pyridin-4-yl)amino)piperidin-1-yl)prop-2-en-1-one]
11 | > 0.1 | > 0.1 | > 1 | > 1 | C=CC(=O)N1C[C@H](Nc2ncnc3[nH]cc([C@@H]4CC4(F)F)c23)CC[C@@H]1C(C)C (single isomer, unassigned) [Example 64]
12 | ≤ 0.01 | ≤ 0.01 | ≤ 0.1 | ≤ 0.1 | C=CC(=O)N1C[C@H](Nc2ncnc3[nH]cc([C@@H]4CC4(F)F)c23)CC[C@@H]1CC (single isomer, unassigned) [Example 68]
13 | ≤ 0.01 | ≤ 0.01 | ≤ 0.1 | ≤ 0.1 | C=CC(=O)N1C[C@H](Nc2ncnc3[nH]cc([C@H]4[C@H](C)C4(F)F)c23)CC[C@@H]1C (single isomer, unassigned) [Example 51]
14 | ≤ 0.01 | ≤ 0.01 | 0.1 to 1 | 0.1 to 1 | C=CC(=O)N1C[C@@H](Nc2ncnc3[nH]cc(CC4CC4)c23)CC[C@H]1CC (single isomer, unassigned) [Example 39]
15 | 0.01 to 0.1 | > 0.1 | > 1 | > 1 | C=CC(=O)N1CC(Nc2ncnc3[nH]cc(C(=O)C4CC4)c23)C1 [Example 7, 1-(3-((5-(cyclopropanecarbonyl)-7H-pyrrolo[2,3-d]pyrimidin-4-yl)amino)azetidin-1-yl)prop-2-en-1-one]
